These are literature values, as cited in patent US6432400B1, “Specific pancreatic lipase inhibitors and their applications” (Laboratoire Laphal (Laboratoire de Pharmacologie Appliquee), priority 1997, dated 2002).

Series [1] concerns carboxylester lipase, gastric lipase and lipase stimulated by the bile salts in human milk. The settings on record: inhibits carboxylester lipase, gastric lipase and bile-salt-stimulated lipase of human milk.
The next series deals with T1, pancreatic lipase (Homo sapiens, UniProt P16233).
T1 sequence (P16233 17-465): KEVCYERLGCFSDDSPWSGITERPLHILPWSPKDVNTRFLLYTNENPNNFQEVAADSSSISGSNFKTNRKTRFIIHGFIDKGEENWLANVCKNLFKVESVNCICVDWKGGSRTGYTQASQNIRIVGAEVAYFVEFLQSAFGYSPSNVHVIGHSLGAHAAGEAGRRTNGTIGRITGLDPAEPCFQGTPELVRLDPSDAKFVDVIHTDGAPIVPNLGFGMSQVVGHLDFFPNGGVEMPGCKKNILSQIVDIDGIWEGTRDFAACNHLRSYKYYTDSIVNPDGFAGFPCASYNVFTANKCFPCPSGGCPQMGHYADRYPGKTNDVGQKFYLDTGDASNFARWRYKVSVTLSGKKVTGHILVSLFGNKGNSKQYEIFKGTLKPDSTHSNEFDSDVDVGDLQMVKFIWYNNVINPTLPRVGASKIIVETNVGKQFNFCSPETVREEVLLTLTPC
The settings on record: 1 mol of THL/mol of enzyme.

`CCCCCCCCCCC[C@@H](C[C@@H]1OC(=O)[C@H]1CCCCCC)OC(=O)[C@H](CC(C)C)NC=O` [THL, tetrahydrolipstatin]: in series [1], the “specificity for pancreatic lipase” value is reported as “not specific for pancreatic lipase”. Moreover, the “inhibition of the lipolytic activity” value on pancreatic lipase is given as “complete inhibition”.
